Columns and labels:
mice [1] = test: THC-induced impairment of reality testing; format: in vivo
mice [2] = test: THC-induced increase in psychomotor stimulation (open field); format: in vivo
healthy volunteers [3] = format: in vivo, human; conditions: SAD
mice [4] = test: Anxiety-related behavior, elevated plus maze, repeated treatment; format: in vivo; conditions: mice, elevated plus maze, highest dose tested 15 mg/kg
Excerpt: (§1) Anxiety-like behaviors were studied in the elevated plus maze (EPM), a rodent model used to evaluate the putative anxiogenic or anxiolytic effects of pharmacological compounds. Depression-related behaviors were studied using the sucrose preference test as a model of anhedonia, one of the cardinal symptoms of depression.
The EPM apparatus comprises four elevated arms arranged in a cross-like shape, with the two opposite arms enclosed by walls and the other two arms open. For all experiments, mice were placed in the center of the EPM and were free to explore the maze for 5 min after receiving the treatment. The time spent and the number of entries into the open and closed arms were measured by an automatic video tracking system (EthoVision XT version 12, Noldus Information Technology). A decrease in the percentage of visits and/or the time spent in open arms is considered an index of increased anxiety.
(§2) The EPM assessment was done on day 26, and the sucrose preference test was done on day 28.

mice [5] = test: Glucocorticoid (corticosterone) secretion in mice; format: in vivo; conditions: mice, highest dose tested 10 mg/kg
Protocol: Blood sampling was performed 2, 5, 8 and 24 h after dosing (n = 3 per sex per dose per sampling time). For blood sampling, mice were anaesthetized under isoflurane, and blood was collected by cardiac puncture. Blood was centrifuged, and plasma was taken and frozen at −80 °C until quantifications of corticosterone by GC–MS/MS.

healthy volunteers [6] = test: Phase 1 single-ascending-dose (SAD) study, safety
Protocol: Four single oral dose levels (0.2, 0.6, 2 and 6 mg) were given in the morning on day 1 in the SAD study, and three oral doses (0.6, 2 and 6 mg) were given in the morning of day 1 to day 7 in the MAD study, to independent dose cohorts. […] Each dose cohort comprised eight volunteers (six (5/1) active and two (1/1) placebo per dose level).
During the rest of the study, only volunteers with pathological values were excluded.
Participants were admitted to the research clinic at midday before dosing (day −1). In the SAD study, they remained in-house until day 8 for PK and PD samples and safety assessments. In the MAD study, participants remained in-house until day 14 and returned to the research facility on an outpatient basis to have PK and safety assessments at 216 h and 264 h (day 16 and day 18) after their last dose (day 7). Safety monitoring (physical examinations, vital sign measurements, 12-lead ECGs, clinical safety laboratory tests and AE monitoring) were performed throughout the studies. Psychometrics tests (Bond & Lader VAS, Addiction Research Center Inventory (49-item short form) (ARCI-49) and Profile of Mood States 65 self-report items (POMS-65)) and the Columbia-Suicide Severity Rating Scale (C-SSRS) test were performed at baseline, before dose and at 4 h and 24 h after dose on day 1 and day 7 (MAD study, only) and C-SSRS only at 24 h.
All participants who had AEs, whether considered associated with the use of the investigational product or not, were monitored for as long as needed to determine resolution.

mice [7] = test: Depression-related behavior, sucrose preference test, repeated treatment; format: in vivo; conditions: mice, sucrose preference test, highest dose tested 15 mg/kg
Excerpt: as §1
The sucrose preference test was done in the home cage. Two identical bottles, one containing water and the other containing a 2% sucrose solution, were placed in the hopper of each cage. The mice had unlimited access to water and sucrose solutions during the active phase—the dark phase of the light/dark cycle that started at 20:00. The volume of water and of sucrose solution consumed was measured over two […] intervals, the first between 19:00 and 20:30 and the second between 20:30 and 22:00. At each timepoint, the bottles were weighed, and the intake volume was calculated by subtracting the […].
as §2

[8] = Exposure at the highest dose tested in animals without toxicity; format: in vivo; conditions: human, plasma; exposure limit for humans
Protocol: The planned dose-escalation schema for the SAD study was based on preclinical pharmacodynamics (PD), safety and toxicology data translated to humans using body surface ratios to ensure a large safety margin. For the MAD study, safety and PK data from the SAD study were used to determine doses. In both studies, all safety data for a given cohort/dose level were evaluated by a Data Safety Monitoring Board that was guided by predefined stopping criteria. The stopping criteria were based on the seriousness and severity combined with frequency of AEs that would lead to either not proceeding to the next dose level or stopping the trial. Dose escalation was also to be halted if the peak plasma levels exceeded that corresponding to the NOAEL in the most sensitive animal species (that is, the rat) in preclinical toxicology studies.

[9] = Increase in psychomotor stimulation

## COc1ccc(CO[C@H]2CC[C@@]3(C)C(=CC[C@H]4[C@@H]5CC[C@H](C(C)=O)[C@@]5(C)CC[C@@H]43)C2)cc1 [AEF0117, 3β-(4-methoxybenzyloxy)pregn-5-en-20-one]
Mice [1]
  THC impairment in reality testing: inhibited
Mice [1]; Impairment of reality testing
  % Inhibition: 100%
  ID100: ≤ 15 µg/kg
Mice [2]
  THC-increased psychomotor stimulation: inhibited
Mice [2]; [9]
  % Inhibition: 100%
  ID50: 0.36 µg/kg
  ID100: 1.5 µg/kg
Healthy volunteers [3]; 0.2-6 mg vs placebo
  ARCI 49 sub-scores: No relevant trend
  Bond and Lader VAS (alertness, contentedness, calmness): No clinically relevant differences
  POMS 65 sub-scales: No relevant trend
Healthy volunteers [3]; all doses 0.2-6 mg, Day 1 and Day 2
  C-SSRS: number of subjects with suicidal ideation or behavior: 0 n (%)
Mice [4]
  Overall effect: increase in anxiety-related behaviors: No
Mice [5]
  Overall effect: increase in glucocorticoid secretion: No
Healthy volunteers [6]; single 0.2 mg
  Number of TEAEs: 4 E
  Number of participants with a TEAE leading to discontinuation: 0 n (%)
  Number of participants with an SAE: 0 n (%)
  Number of participants with at least one TEAE: 2 (33.3) n (%)
  Participants with TEAE: Mild: 2 (33.3) n (%)
  Participants with TEAE: Moderate: 1 (16.7) n (%)
  Participants with TEAE: Not related: 1 (16.7) n (%)
  Participants with TEAE: Severe: 0 n (%)
  TEAEs by SOC: Gastrointestinal disorders: 2 (33.3) n (%)
  TEAEs by SOC: Investigations: 0 n (%)
  TEAEs by SOC: Nervous system disorders: 1 (16.7) n (%)
Healthy volunteers [6]; single 0.6 mg
  Number of TEAEs: 0 E
  Number of participants with a TEAE leading to discontinuation: 0 n (%)
  Number of participants with an SAE: 0 n (%)
  Number of participants with at least one TEAE: 0 n (%)
  Participants with TEAE: Mild: 0 n (%)
  Participants with TEAE: Moderate: 0 n (%)
  Participants with TEAE: Not related: 0 n (%)
  Participants with TEAE: Related: 0 n (%)
  Participants with TEAE: Severe: 0 n (%)
  TEAEs by SOC: Gastrointestinal disorders: 0 n (%)
  TEAEs by SOC: Investigations: 0 n (%)
  TEAEs by SOC: Nervous system disorders: 0 n (%)
Healthy volunteers [6]; single 2 mg
  Number of TEAEs: 2 E
  Number of participants with a TEAE leading to discontinuation: 0 n (%)
  Number of participants with an SAE: 0 n (%)
  Number of participants with at least one TEAE: 1 (8.3) n (%)
  Participants with TEAE: Mild: 1 (8.3) n (%)
  Participants with TEAE: Moderate: 0 n (%)
  Participants with TEAE: Not related: 0 n (%)
  Participants with TEAE: Severe: 0 n (%)
  TEAEs by SOC: Gastrointestinal disorders: 0 n (%)
  TEAEs by SOC: Investigations: 1 (8.3) n (%)
  TEAEs by SOC: Nervous system disorders: 0 n (%)
Healthy volunteers [6]; single 6 mg
  Number of TEAEs: 0 E
  Number of participants with a TEAE leading to discontinuation: 0 n (%)
  Number of participants with an SAE: 0 n (%)
  Number of participants with at least one TEAE: 0 n (%)
  Participants with TEAE: Mild: 0 n (%)
  Participants with TEAE: Moderate: 0 n (%)
  Participants with TEAE: Not related: 0 n (%)
  Participants with TEAE: Related: 0 n (%)
  Participants with TEAE: Severe: 0 n (%)
  TEAEs by SOC: Gastrointestinal disorders: 0 n (%)
  TEAEs by SOC: Investigations: 0 n (%)
  TEAEs by SOC: Nervous system disorders: 0 n (%)
Mice [7]
  Overall effect: increase in depression-related behaviors: No
[8]
  AUC: 41600 ng·h/mL
  Cmax: 4360 ng/mL

— PMC10287566, “Signaling-specific inhibition of the CB1 receptor for cannabis use disorder: phase 1 and phase 2a randomized trials” (Nature Medicine, 2023)
